The text below walks through data of paper PMC2532997, “Methoxylation enhances stilbene bioactivity in Caenorhabditis elegans” (BMC Pharmacology, 2008).

SMILES strings stand for the structures.

Data set [1] concerns C. elegans fem-1(hc17) sterile adults. The experiment in a line: Adult survival assay of sterile fem-1(hc17) adults on compound-supplemented medium. The data set is classed as in vivo, Caenorhabditis elegans. As for the experimental part:
For survival assays, young adult (day 0) animals were transferred onto fresh medium supplemented with the test compound at a range of concentrations. The compounds were tested at indicated concentrations in the growth medium (below). C. elegans nematodes are surrounded by a thick collagenous cuticle and are therefore relatively impermeable to environmental compounds. […] Survival was scored every 2–3 days as the ability to move in response to a gentle mechanical stimulus. During the first week of adulthood, C. elegans hermaphrodites are reproductively competent and normally produce 200–300 progeny. Since progeny production would complicate survival analysis, these experiments were performed using fem-1(hc17) animals that are sterile due to a spermatogenesis defect.
Resveratrol and picetannol were obtained from commercial sources (Sigma-Aldrich, Inc. and Calbiochem-Novobiochem Corp., respectively). The methoxylated stilbenes pinostilbene, desoxyrhapontigenin, 3-hydroxy-5,4'-dimethoxystilbene and pterostilbene (Figure 1) were synthesized by partial methylation of trans-resveratrol as previously reported. The methoxylated stilbenes were purified by preparative layer chromatography (Merck Silica gel 60 F254; EMD Chemicals Inc., Gibbstown, NJ) using the developing solvent chloroform:methanol (96:4) with 1% formic acid. […] These stilbenes were identified from their ^1H-NMR spectra (Bruker 400 MHz; Bruker, Billerica, MA). All stilbenes were dissolved in ethanol to 25 mg/mL before use. 5-Fluoro-deoxyuracil (Sigma Chemical Co.) was dissolved to 1 mg/mL in sterile water and stored frozen at -20°C until use. For treating C. elegans adults, each compound was added in a 200 μL volume to the top of a 1-day old bacterial lawn grown on NGM medium to final concentrations as indicated. Compounds were allowed 2 hours to diffuse through the agar medium before animals were added.
For survival analyses, synchronized populations of sterile fem-1(hc17) hermaphrodites were obtained by first transferring several fertile hermaphrodites to a fresh plate at 25°C and allowing them to lay eggs for several hours. The parent hermaphrodites were removed and embryos were allowed to develop into sterile adults at 25°C, which takes approximately 48 hours. On the first day of adulthood, referred to as day 0, sterile adults were transferred onto fresh media supplemented with stilbenes at indicated concentrations, and maintained at 25°C. Adult survival was scored every 2–3 days by the animal's ability to move in response to a gentle mechanical stimulus. Statistical analysis of survival was performed using the JMP software package.

Data set [2] relates to gld-1(q485) germline tumors. Put plainly: Germline tumor growth assay (DAPI-stained tumor area). The data set is classed as in vivo, Caenorhabditis elegans. The settings on record: for effect on tumor size (in words): 100 μM dose. As for the experimental part: To assess the effects of methoxylation on antitumor activity in vivo, tumor area was measured in gld-1(q485) adults treated for four days with either resveratrol trimethylether, desoxyrhapontigenin or pterostilbene, which are methoxylated and toxic to adults, or resveratrol, which is hydroxylated and nontoxic. As controls, germline tumor area was also measured in animals treated with carrier only (ethanol) or with 5-fluoro-2'-deoxyuradine (FUDR), a thymidylate synthetase inhibitor that blocks cell proliferation. […] After four days of treatment, animals were collected and germline tumors were visualized by DAPI staining to visualize germcell nuclei. Because the level of DAPI staining was not quantitative between animals, we DAPI signal intensity was not used as a measure of tumor size. Rather, tumor size was directly measured as the area of the DAPI-stained gonad.
Resveratrol and picetannol were obtained from commercial sources (Sigma-Aldrich, Inc. and Calbiochem-Novobiochem Corp., respectively). The methoxylated stilbenes pinostilbene, desoxyrhapontigenin, 3-hydroxy-5,4'-dimethoxystilbene and pterostilbene (Figure 1) were synthesized by partial methylation of trans-resveratrol as previously reported. The methoxylated stilbenes were purified by preparative layer chromatography (Merck Silica gel 60 F254; EMD Chemicals Inc., Gibbstown, NJ) using the developing solvent chloroform:methanol (96:4) with 1% formic acid. The Rf values for pterostilbene, 3-hydroxy-5,4'-dimethoxystilbene, pinostilbene and desoxyrhapontigenin are 0.61, 0.57, 0.28, and 0.20, respectively. These stilbenes were identified from their ^1H-NMR spectra (Bruker 400 MHz; Bruker, Billerica, MA). All stilbenes were dissolved in ethanol to 25 mg/mL before use. 5-Fluoro-deoxyuracil (Sigma Chemical Co.) was dissolved to 1 mg/mL in sterile water and stored frozen at -20°C until use. For treating C. elegans adults, each compound was added in a 200 μL volume to the top of a 1-day old bacterial lawn grown on NGM medium to final concentrations as indicated. Compounds were allowed 2 hours to diffuse through the agar medium before animals were added.
The gld-1(q485) mutation causes a defect in oocyte development that results in growth of germline tumors that fill the somatic gonad, eventually leading to the animal's death. To examine the effects of the stilbenes on gld-1(q485) germline tumors, day 0 adults were placed on stilbene-containing medium in the presence of OP50 bacteria as food source. After 4 days at 20°C, animals were fixed in methanol and germcell nuclei were visualized by staining with DAPI. Images were collected with the entire animal in view using the 4× objective on a Nikon E800 microscope equipped with a Hamamatsu Orca ER CCD camera using OpenLab imaging software. NIH Image J software was used to measure germline tumor growth in treated and untreated animals. Tumor area was measured by outlining the entire DAPI-stained tumor.

The test system of a further data set is cytochrome P450 2E1. Set-up: method as in PMID 16684708. The settings on record: cited from earlier work.
The mark [3] stands for this setting: Trial 1, 100 μM in medium, from day 0 of adulthood, 25°C, control 12.16 days.
The mark [4] stands for this setting: Trial 1, 100 μM, treated vs control mean lifespan.
Where [5] appears, read: Trial 2, 20 μM, control 11.05 days.
The mark [6] stands for this setting: Trial 2, 40 μM, control 11.05 days.
[7] abbreviates: Trial 6, 20 μM, control 15.32 days.
Setting [8] is: Trial 6, 40 μM, control 15.32 days.
Setting [9] is: Trial 6, 100 μM, control 15.32 days.
The mark [10] stands for this setting: Trial 3, 100 μM, control 15.37 days.
[11] abbreviates: Trial 3, 200 μM, control 15.37 days.
Setting [12] is: Trial 4, 20 μM, control 11.26 days.
Where [13] appears, read: Trial 4, 40 μM, control 11.26 days.
Setting [14] is: Trial 4, 100 μM, control 11.26 days.

For the compound `COc1ccc(C=Cc2cc(O)cc(OC)c2)cc1` [3-OH-5,4'-dimethoxystilbene, 3-hydroxy-5,4'-dimethoxystilbene], the “Mean lifespan, Treated” value in data set [1] (setting [3]) is on record as 6.34 days; in data set [1] (setting [5]), 11.05 days; in data set [1] (setting [6]), 10.52 days; in data set [1] (setting [7]), 10.38 days; in data set [1] (setting [8]), 7.68 days; in data set [1] (setting [9]), 6.56 days. Also, the Relative survival turned out to be 52% in data set [1] (setting [4]); 100% in data set [1] (Trial 2, 20 μM); 95% in data set [1] (Trial 2, 40 μM); 68% in data set [1] (Trial 6, 20 μM); 50% in data set [1] (Trial 6, 40 μM); 43% in data set [1] (Trial 6, 100 μM).

On to `COc1ccc(/C=C/c2cc(O)cc(O)c2)cc1` [Desoxyrhapontigenin, desoxyrhapontigenin], for which the “Mean lifespan, Treated” value came to 10.64 days in data set [1] (setting [3]); 11.31 days in data set [1] (setting [10]); 11.61 days in data set [1] (setting [11]); 10.2 days in data set [1] (setting [12]); 10.38 days in data set [1] (setting [13]); 9.44 days in data set [1] (setting [14]). Besides, the “Mean lifespan, Treated” value in data set [1] (setting [7]) was 14.18 days; in data set [1] (setting [8]), 15.31 days; in data set [1] (setting [9]), 13.63 days. The Relative survival in data set [1] (setting [4]) was determined as 88%; in data set [1] (Trial 3, 100 μM), 74%; in data set [1] (Trial 3, 200 μM) it was 76%; in data set [1] (Trial 4, 20 μM), 91%; in data set [1] (Trial 4, 40 μM), 92%; in data set [1] (Trial 4, 100 μM), 84%. Further, the Relative survival amounted to 93% in data set [1] (Trial 6, 20 μM); 100% in data set [1] (Trial 6, 40 μM); 89% in data set [1] (Trial 6, 100 μM). For the same compound, in data set [2] (four days treatment), the “effect on tumor size (in words)” value is recorded as “consistent reductions in tumor size”. In addition, in the data set on cytochrome P450 2E1, the “inhibition of catalytic activity of cytochrome P450 2E1 (in words)” value is “not inhibitory”.

Take `Oc1cc(O)cc(/C=C/c2ccc(O)c(O)c2)c1` [Piceatannol, piceatannol, reference compound]: the Relative survival in data set [1] (Trial 2, 20 μM) was 106%; in data set [1] (Trial 2, 40 μM), 105%; in data set [1] (Trial 3, 100 μM) it was 116%; in data set [1] (Trial 3, 200 μM) it was 114%; in data set [1] (Trial 6, 20 μM), 89%; in data set [1] (Trial 6, 40 μM), 102%. In data set [1] (Trial 6, 100 μM), the Relative survival turned out to be 108%. The “Mean lifespan, Treated” value in data set [1] (setting [5]) is listed as 11.72 days; in data set [1] (setting [6]), 11.58 days; in data set [1] (setting [10]), 17.78 days; in data set [1] (setting [11]) it was 17.5 days; in data set [1] (setting [7]), 13.71 days; in data set [1] (setting [8]), 15.63 days. Moreover, in data set [1] (setting [9]), the “Mean lifespan, Treated” value is 16.6 days.

As for `COc1cc(O)cc(/C=C/c2ccc(O)cc2)c1` [Pinostilbene, pinostilbene], the “Mean lifespan, Treated” value in data set [1] (setting [3]) is 13.6 days; in data set [1] (setting [5]) it was 10.04 days; in data set [1] (setting [6]), 11.53 days; in data set [1] (setting [10]) it was 16.9 days; in data set [1] (setting [11]), 15.23 days; in data set [1] (setting [7]), 14.24 days. Further, the “Mean lifespan, Treated” value in data set [1] (setting [8]) worked out at 17.33 days; in data set [1] (setting [9]), 16.24 days. The Relative survival is listed as 112% in data set [1] (setting [4]); 91% in data set [1] (Trial 2, 20 μM); 104% in data set [1] (Trial 2, 40 μM); 110% in data set [1] (Trial 3, 100 μM); 99% in data set [1] (Trial 3, 200 μM); 93% in data set [1] (Trial 6, 20 μM). In addition, the Relative survival in data set [1] (Trial 6, 40 μM) is listed as 113%; in data set [1] (Trial 6, 100 μM), 106%. In addition, in the data set on cytochrome P450 2E1, the “inhibition of catalytic activity of cytochrome P450 2E1 (in words)” value is reported as “moderately inhibited”.

Turning to `COc1cc(/C=C/c2ccc(O)cc2)cc(OC)c1` [Pterostilbene, pterostilbene], the “Mean lifespan, Treated” value in data set [1] (setting [3]) stood at 9.55 days; in data set [1] (setting [12]) it was 10.43 days; in data set [1] (setting [13]) it was 10 days; in data set [1] (setting [14]), 8.07 days; in data set [1] (setting [7]), 13.72 days; in data set [1] (setting [8]), 14.41 days. Besides, in data set [1] (setting [9]), the “Mean lifespan, Treated” value is 10.98 days. Also, the Relative survival is on record as 79% in data set [1] (setting [4]); 93% in data set [1] (Trial 4, 20 μM); 89% in data set [1] (Trial 4, 40 μM); 72% in data set [1] (Trial 4, 100 μM); 90% in data set [1] (Trial 6, 20 μM); 94% in data set [1] (Trial 6, 40 μM). The Relative survival in data set [1] (Trial 6, 100 μM) worked out at 72%. The “effect on tumor size (in words)” value in data set [2] (four days treatment) is “modestly reduced tumor size”.

In the case of `Oc1ccc(/C=C/c2cc(O)cc(O)c2)cc1` [Resveratrol, resveratrol, reference compound], the “Mean lifespan, Treated” value in data set [1] (setting [3]) came to 12.18 days; in data set [1] (setting [5]) it was 11.85 days; in data set [1] (setting [6]), 10.53 days; in data set [1] (setting [10]), 16.64 days; in data set [1] (setting [11]) it was 17 days; in data set [1] (setting [7]), 14.65 days. Moreover, the entries for the “Mean lifespan, Treated” value in data set [1] (setting [8]) and in data set [1] (setting [9]) were 16.17 days and 17.55 days, respectively. For the same compound, the Relative survival stood at 100% in data set [1] (setting [4]); 107% in data set [1] (Trial 2, 20 μM); 95% in data set [1] (Trial 2, 40 μM); 108% in data set [1] (Trial 3, 100 μM); 111% in data set [1] (Trial 3, 200 μM); 96% in data set [1] (Trial 6, 20 μM). The Relative survival in data set [1] (Trial 6, 40 μM) stood at 106%; in data set [1] (Trial 6, 100 μM) it was 115%. In addition, the “effect on germline tumor size vs untreated” value in data set [2] (100 μM in growth medium, four days treatment, FUDR values are single trials) is reported as -4%. Also, the “effect on tumor area (in words)” value in data set [2] (200 and 400 μM dose, three trials) is “not associated with statistically significant reductions in tumor area”.
